Columns and labels:
[1] = system: male patients suffering from BPH; assay: Side effects with the use of Teverelix TFA; set-up: species or system human; settings: in vivo
Experimental: (§1) A phase II randomised, double blind, placebo-controlled, multi-centre, multi national study was conducted in order to investigate the use of an Teverelix TFA formulation in the composition according to the invention. In said study the International Prostate Symptom Score (I-PSS), the prostate volume, the urinary flow rate and the testosterone level in males suffering from BPH were evaluated.
(§2) Two single injections of Formulation A and Formulation A-placebo was administered s.c. at an interval of 48 hours to 81 male patients (41 on A and 40 on A-placebo) suffering from BPH.

[2] = system: male patients suffering from BPH; assay: Prostate volume in phase II placebo-controlled study; format: in vivo, human; settings: two s.c. injections of 60 mg at an interval of 48 hours
Experimental: as §1
(§3) The Teverelix TFA formulation was reconstituted as follows. 0.8 ml 5% mannitol was added to 60 mg of the LHRH antagonist Teverelix trifluoroacetate. The mixture was stirred using vortex during one minute providing a dosage formulation of Teverelix TFA as a flowing milky pearly microcrystalline aqueous suspension. The suspension is made of microcrystals of about 10 μm length. Corresponding placebo formulations, without Teverelix TFA, were also prepared
(§4) Formulation A: 60 mg Teverelix TFA in 0.8 ml 5% mannitol
as §2

[3] = system: male patients suffering from BPH; assay: International Prostate Symptom Score (I-PSS) in phase II placebo-controlled study; format: in vivo, human
Experimental: as §1, §3, §4, §2
The International Prostate Symptom Score (I-PSS) is based on the answers to seven questions concerning urinary symptoms and one question concerning quality of life. Each question concerning urinary symptoms allows the patient to choose one out of six answers indicating increasing severity of the particular symptom. The answers are assigned points from 0 to 5. The total score can therefore range from 0 to 35 (asymptomatic to very symptomatic).

[4] = system: male patients suffering from BPH; assay: Serum testosterone level in phase II placebo-controlled study; format: in vivo, human; settings: two s.c. injections of 60 mg at an interval of 48 hours; FIG. 4
Experimental: as §1, §3, §4, §2

[5] = system: male patients suffering from BPH; assay: Urinary flow rate (Qmax) in phase II placebo-controlled study; format: in vivo, human; settings: two s.c. injections of 60 mg at an interval of 48 hours
Experimental: as §1, §3, §4, §2

N-Ac-d-Nal^1, d-pCl-Phe^2, d-Pal^3, d-(Hci)^6, Lys(iPr)^8, d-Ala^10 trifluoroacetate [Teverelix TFA]
serious side effects [1]: no serious side effects | time to prostate volume reduction after initiating therapy [2]: within four weeks | prostate volume decrease ([2]; FIG. 2): 11.5% | IPSS reduction ([3]; at 2 weeks): 12.6% | IPSS reduction ([3]; at 16 weeks): 33.9% | improvement in quality of life score (QoL) ([3]; at 16 weeks): 32.8% | time to improvement of symptoms (I-PSS) ([3]; two s.c. injections of 60 mg at an interval of 48 hours): within two weeks | improvement on I-PSS ([3]; two s.c. injections of 60 mg at an interval of 48 hours, 16-week study, FIG. 1): 39.9% | reduction in the testosterone level [4]: immediate reduction | time for testosterone level to return to baseline levels [4]: within eight weeks | time to significant increase in the flow rate [5]: within the first two weeks | increase in maximum urinary flow rate (Qmax) ([5]; at 16 weeks): 43%
